One assay deals with T1, human LXR alpha (Homo sapiens, UniProt Q13133).
T1 construct: human LXR alpha (aa 164 to 447); unspecified tag ('tagged versions'); made in house; host or cells: E. coli BL21 (pLysS)
T1 sequence (Q13133 164-447): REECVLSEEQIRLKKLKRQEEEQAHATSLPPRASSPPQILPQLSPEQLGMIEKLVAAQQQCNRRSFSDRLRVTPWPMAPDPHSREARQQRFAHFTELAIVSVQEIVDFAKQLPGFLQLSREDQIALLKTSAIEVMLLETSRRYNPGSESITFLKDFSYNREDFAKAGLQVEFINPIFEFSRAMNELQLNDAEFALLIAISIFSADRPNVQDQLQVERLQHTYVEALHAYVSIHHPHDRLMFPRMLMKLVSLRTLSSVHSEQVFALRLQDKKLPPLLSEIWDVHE
The experiment in a line: Radioligand binding assay (SPA), LXR alpha LBD. The following applies: radioligand displacement, LXRα-LBD on SPA beads; read-out: LXRalpha Binding IC50. The method, then:
(§1) The following tests were carried out in order to determine the activity of the compounds of the present invention. Background information on the performed assays can be found in: Nichols J S et al. “Development of a scintillation proximity assay for peroxisome proliferator-activated receptor gamma ligand binding domain”, Anal Biochem. 1998, 257: 112-119.
(§2) Mammalian expression vectors were constructed to express full-length human LXR alpha and LXR beta. Bacterial expression vectors were constructed to produce tagged versions of the ligand binding domains (LBD) of human LXR alpha (aa 164 to 447) and human LXR beta (aa 155 to 460). To accomplish this, the portions of the sequences encoding the LBDs were amplified from the full-length clones by PCR and then subcloned into the plasmid vectors. Final clones were verified by DNA sequence analysis (Willy et al., Genes Dev. 1995, 9:1033-45; Song et al., Proc Natl Acad Sci USA. 1994, 91:10809-13).
(§3) Induction, expression, and purification of LBD proteins were performed in E. coli strain BL21 (pLysS) cells by standard methods (Ref: Current Protocols in Molecular Biology, Wiley Press, edited by Ausubel et al).
(§4) Radioligand Binding Assay
(§5) LXR alpha and LXR beta receptor binding were assayed in buffer consisting of 50 mM HEPES, pH 7.4, 10 mM NaCl, 5 mM MgCl2. For each 96-well reaction, 500 ng of LXRα-LBD or 700 ng of LXR beta-LBD proteins were bound to 80 μg or 40 μg SPA beads respectively, in a final volume of 50 μl by shaking. The resulting slurry was incubated for 1 h at RT and centrifuged for 2 min at 1300×g. The supernatant containing unbound protein was removed, and the semi-dry pellet containing the receptor-coated beads was re-suspended in 50 μl of buffer. Radioligand (eg. 100,000 dpm of (N-(2,2,2-trifluoroethyl)-N-[4-(2,2,2-trifluoro-1-hydroxy-1-trifluoromethylethyl)-phenyl]-benzenesulfonamide)) was added, and the reaction incubated at RT for 1 h in the presence of test compounds, and then scintillation proximity counting was performed. All binding assays were performed in 96-well plates and the amount of bound ligand was measured on a Packard TopCount using OptiPlates (Packard). Dose response curves were measured within a range of concentration from 10^−10 M to 10^−4 M.

The target of a further assay is T2, human LXR beta (Homo sapiens, UniProt P55055).
T2 construct: human LXR beta (aa 155 to 460); unspecified tag ('tagged versions'); made in house; host or cells: E. coli BL21 (pLysS)
T2 sequence (P55055 155-460): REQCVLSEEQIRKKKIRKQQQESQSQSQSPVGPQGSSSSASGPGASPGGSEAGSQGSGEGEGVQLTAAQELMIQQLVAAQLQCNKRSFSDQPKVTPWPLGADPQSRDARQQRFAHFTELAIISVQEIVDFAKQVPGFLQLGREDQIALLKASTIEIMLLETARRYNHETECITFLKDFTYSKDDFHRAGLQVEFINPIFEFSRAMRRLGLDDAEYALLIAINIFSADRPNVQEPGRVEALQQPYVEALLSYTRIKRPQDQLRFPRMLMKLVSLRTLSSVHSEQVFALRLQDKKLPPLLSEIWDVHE
Briefly: Radioligand binding assay (SPA), LXR beta LBD. The following applies: radioligand displacement, LXR beta-LBD on SPA beads; read-out: LXRbeta Binding IC50. The method, then:
as §1, §2, §3, §4, §5

Molecules are shown by their SMILES.

One may read the IC50 as the concentration that gives 50% inhibition. With `O=C(O)c1ccccc1-c1cccc(C2CN(S(=O)(=O)c3ccccc3)C(=O)N2c2ccccc2)c1` (centres unmarked) [Example 11, 3′-(1-Benzenesulfonyl-2-oxo-3-phenyl-imidazolidin-4-yl)-biphenyl-2-carboxylic acid], the IC50 at human LXR alpha is 13000 nM; on human LXR beta it was 46100 nM.

For the compound `CC(C)N1C(=O)N(S(=O)(=O)c2ccccc2)CC1c1cccc(-c2cccc(S(C)(=O)=O)c2)c1` (centres unmarked) [Example 12, 1-Benzenesulfonyl-3-isopropyl-4-(3′-methanesulfonyl-biphenyl-3-yl)-imidazolidin-2-one], the 50% inhibitory concentration (IC50) on human LXR alpha amounted to 147 nM; at human LXR beta, 24.3 nM.

On to `CC(C)N1C(=O)N(S(=O)(=O)C(C)C)CC1c1cccc(-c2cccc(S(C)(=O)=O)c2)c1` (centres unmarked) [Example 13, 3-Isopropyl-4-(3′-methanesulfonyl-biphenyl-3-yl)-1-(propane-2-sulfonyl)-imidazolidin-2-one], for which the figures for the IC50 at human LXR alpha and on human LXR beta were 2490 nM and 36 nM, respectively.

As to `CC(C)N1C(=O)N(S(=O)(=O)c2ccccc2F)CC1c1cccc(-c2cccc(S(C)(=O)=O)c2)c1` (centres unmarked) [Example 14, 1-(2-Fluoro-benzenesulfonyl)-3-isopropyl-4-(3′-methanesulfonyl-biphenyl-3-yl)-imidazolidin-2-one], the IC50 at human LXR alpha came out at 10 nM; on human LXR beta it was 6 nM.

On to `Cc1oncc1S(=O)(=O)N1CC(c2cccc(-c3cccc(S(C)(=O)=O)c3)c2)N(C(C)C)C1=O` (centres unmarked) [Example 15, 3-Isopropyl-4-(3′-methanesulfonyl-biphenyl-3-yl)-1-(5-methyl-isoxazole-4-sulfonyl)-imidazolidin-2-one], for which the IC50 on human LXR alpha came out at 2580 nM; at human LXR beta it was 160 nM.

As for `CS(=O)(=O)c1cc(-c2cccc(C3CN(S(=O)(=O)c4ccccc4)C(=O)N3c3ccccc3)c2)ccc1CO` (centres unmarked) [Example 16, 1-Benzenesulfonyl-4-(4′-hydroxymethyl-3′-methanesulfonyl-biphenyl-3-yl)-3-phenyl-imidazolidin-2-one], the IC50 on human LXR alpha came out at 475 nM; at human LXR beta, 29 nM.

With `CC(C)N1C(=O)N(S(C)(=O)=O)CC1c1cccc(-c2cccc(S(C)(=O)=O)c2)c1` (centres unmarked) [Example 17, 3-Isopropyl-1-methanesulfonyl-4-(3′-methanesulfonyl-biphenyl-3-yl)-imidazolidin-2-one], the IC50 at human LXR alpha is 52800 nM; on human LXR beta it was 2730 nM.

`CCS(=O)(=O)N1CC(c2cccc(-c3cccc(S(C)(=O)=O)c3)c2)N(C(C)C)C1=O` (centres unmarked) [Example 18, 1-Ethanesulfonyl-3-isopropyl-4-(3′-methanesulfonyl-biphenyl-3-yl)-imidazolidin-2-one]: the IC50 on human LXR alpha is 5010 nM; on human LXR beta, 106 nM.

For `CS(=O)(=O)c1cc(-c2ccc(C3CN(S(=O)(=O)c4ccccc4)C(=O)N3c3ccccc3)cc2)ccc1CO` (centres unmarked) [Example 19, 1-Benzenesulfonyl-4-(4′-hydroxymethyl-3′-methanesulfonyl-biphenyl-4-yl)-3-phenyl-imidazolidin-2-one], the IC50 was found to be 45 nM on human LXR alpha and 18 nM on human LXR beta.

On to `CC(C)N1C(=O)N(S(=O)(=O)c2ccccc2)CC1c1cccc(-c2ccc(CO)c(S(C)(=O)=O)c2)c1` (centres unmarked) [Example 20, 1-Benzenesulfonyl-4-(4′-hydroxymethyl-3′-methanesulfonyl-biphenyl-3-yl)-3-isopropyl-imidazolidin-2-one], for which the IC50 at human LXR alpha came out at 6 nM; on human LXR beta, 1 nM.

Regarding `CC(C)N1C(=O)N(S(=O)(=O)c2ccccc2)CC1c1cccc(-c2cccc([N+](=O)[O-])c2)c1` (centres unmarked) [Example 21, 1-Benzenesulfonyl-3-isopropyl-4-(3′-nitro-biphenyl-3-yl)-imidazolidin-2-one], the IC50 on human LXR alpha amounted to 2910 nM; on human LXR beta, 155 nM.

As for `Cc1ccc(F)cc1-c1cccc(C2CN(S(=O)(=O)c3ccccc3)C(=O)N2C(C)C)c1` (centres unmarked) [Example 22, 1-Benzenesulfonyl-4-(5′-fluoro-2′-methyl-biphenyl-3-yl)-3-isopropyl-imidazolidin-2-one], the results for the IC50 at human LXR alpha and at human LXR beta were 4700 nM and 1360 nM, respectively.

With `CC(C)N1C(=O)N(S(=O)(=O)c2ccccc2)CC1c1cccc(-c2cncc(S(C)(=O)=O)c2)c1` (centres unmarked) [Example 23, 1-Benzenesulfonyl-3-isopropyl-4-[3-(5-methanesulfonyl-pyridin-3-yl)-phenyl]-imidazolidin-2-one], the values for the IC50 on human LXR alpha and on human LXR beta were 2790 nM and 25 nM, respectively.

In the case of `CC(C)N1C(=O)N(S(=O)(=O)c2ccccc2)CC1c1cccc(-c2cccc(S(N)(=O)=O)c2)c1` (centres unmarked) [Example 24, 3′-(1-Benzenesulfonyl-3-isopropyl-2-oxo-imidazolidin-4-yl)-biphenyl-3-sulfonic acid amide], the 50% inhibitory concentration (IC50) is 48 nM on human LXR alpha and 1 nM on human LXR beta.

As for `CC(C)N1C(=O)N(S(=O)(=O)c2ccccc2)CC1c1cccc(-c2cc(F)ccc2Cl)c1` (centres unmarked) [Example 25, 1-Benzenesulfonyl-4-(2′-coro-5′-fluoro-biphenyl-3-yl)-3-isopropyl-imidazolidin-2-one], the IC50 came out at 2030 nM at human LXR alpha and 265 nM on human LXR beta.

For the compound `Cc1ccc(Cl)cc1-c1cccc(C2CN(S(=O)(=O)c3ccccc3)C(=O)N2C(C)C)c1` (centres unmarked) [Example 26, 1-Benzenesulfonyl-4-(5′-chloro-2′-methyl-biphenyl-3-yl)-3-isopropyl-imidazolidin-2-one], the results for the IC50 at human LXR alpha and on human LXR beta were 1990 nM and 315 nM, respectively.

For `COc1ccc(F)cc1-c1cccc(C2CN(S(=O)(=O)c3ccccc3)C(=O)N2C(C)C)c1` (centres unmarked) [Example 27, 1-Benzenesulfonyl-4-(5′-fluoro-2′-methoxy-biphenyl-3-yl)-3-isopropyl-imidazolidin-2-one], the IC50 was found to be 6230 nM on human LXR alpha and 3800 nM at human LXR beta.

Regarding `CC(C)N1C(=O)N(S(=O)(=O)c2ccccc2)CC1c1cccc(-c2cc(C#N)ccc2Cl)c1` (centres unmarked) [Example 28, 3′-(1-Benzenesulfonyl-3-isopropyl-2-oxo-imidazolidin-4-yl)-6-chloro-biphenyl-3-carbonitrile], the IC50 at human LXR alpha came to 2960 nM; on human LXR beta, 505 nM.

On to `CC(C)N1C(=O)N(S(=O)(=O)c2ccccc2)CC1c1cccc(-c2cccc(S(=O)(=O)NC(C)(C)C)c2)c1` (centres unmarked) [Example 29, 3′-(1-Benzenesulfonyl-3-isopropyl-2-oxo-imidazolidin-4-yl)-biphenyl-3-sulfonic acid tert-butylamide], for which the IC50 worked out at 2250 nM at human LXR alpha and 410 nM at human LXR beta.

On to `CCOc1ccc(F)c(-c2cccc(C3CN(S(=O)(=O)c4ccccc4)C(=O)N3C(C)C)c2)c1` (centres unmarked) [Example 30, 1-Benzenesulfonyl-4-(5′-ethoxy-2′-fluoro-biphenyl-3-yl)-3-isopropyl-imidazolidin-2-one], for which the IC50 at human LXR alpha is 95 nM; on human LXR beta it was 10.4 nM.

For the compound `Cc1ccc(C)c(-c2cccc(C3CN(S(=O)(=O)c4ccccc4)C(=O)N3C(C)C)c2)c1` (centres unmarked) [Example 31, 1-Benzenesulfonyl-4-(2′,5′-dimethyl-biphenyl-3-yl)-3-isopropyl-imidazolidin-2-one], the IC50 on human LXR alpha was determined as 815 nM; on human LXR beta, 165 nM.

Turning to `CC(C)N1C(=O)N(S(=O)(=O)c2ccccc2)CC1c1cccc(-c2cc(F)ccc2F)c1` (centres unmarked) [Example 32, 1-Benzenesulfonyl-4-(2′,5′-difluoro-biphenyl-3-yl)-3-isopropyl-imidazolidin-2-one], the IC50 on human LXR alpha came to 950 nM; at human LXR beta, 99.5 nM.

(Values after patent US8063088B2 (Hoffmann-La Roche Inc., priority 2008, dated 2011).)
